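Grown in 96-well plates, cells were treated for 48 hours with each compound at five concentrations. Insufficient inhibition: endpoint recorded as highest concentration tested. GI50 = concentration required for 50% inhibition of growth.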 Calls of active or inactive are those of the source. Cut-off read from the data, not from the text of the source: active = GI50 up to about 1.1 µM and inactive = higher.
How the values were obtained:
Assay in all cases: growth of human tumour cells (NCI), 48 h
[1] = tested on: NCI-H226
[2] = tested on: NCI-H460
[3] = tested on: PC-3
[4] = tested on: UACC-257
[5] = tested on: CCRF-CEM
[6] = tested on: MCF7
[7] = tested on: BT-549
[8] = tested on: RPMI-8226
[9] = tested on: SNB-19
[10] = tested on: SW-620
[11] = tested on: SF-539
[12] = tested on: UO-31
[13] = tested on: HCT-15
[14] = tested on: A498
[15] = tested on: OVCAR-5
[16] = tested on: SF-295
[17] = tested on: HCT-116
[18] = tested on: RXF 393
[19] = tested on: HL-60
[20] = tested on: COLO 205
[21] = tested on: HOP-92
[22] = tested on: NCI/ADR-RES
[23] = tested on: MOLT-4
[24] = tested on: LOX IMVI
[25] = tested on: SK-MEL-5
[26] = tested on: DU-145
[27] = tested on: SF-268
[28] = tested on: SR
[29] = tested on: HOP-62
[30] = tested on: MDA-N
[31] = tested on: ACHN
[32] = tested on: SK-OV-3
[33] = tested on: A549
[34] = tested on: EKVX
[35] = tested on: UACC-62
[36] = tested on: T47D
[37] = tested on: OVCAR-3
[38] = tested on: HT-29
[39] = tested on: SK-MEL-28
[40] = tested on: HCC 2998
[41] = tested on: M14
[42] = tested on: Malme-3M
[43] = tested on: SNB-75
[44] = tested on: SK-MEL-2
[45] = tested on: IGROV-1
[46] = tested on: U-251
[47] = tested on: NCI-H23
[48] = tested on: SN12C
[49] = tested on: Hs-578T
[50] = tested on: NCI-H522
[51] = tested on: OVCAR-8
[52] = tested on: TK-10
[53] = tested on: MDA-MB-435
[54] = tested on: 786-0
[55] = tested on: CAKI-1
[56] = tested on: KM12
[57] = tested on: OVCAR-4
[58] = tested on: MDA-MB-231

## CNC(=O)/C=C/C1=CN2C(=O)c3ccc(C)c(O)c3NC(OC)C2C1 (stereo not drawn)
[1]
  GI50: 14.1 nM (active)
[2]
  GI50: 13.5 nM (active)
[3]
  GI50: < 16 nM (active)
[4]
  GI50: < 13 nM (active)
[5]
  GI50: < 24.7 nM (active)
[6]
  GI50: < 16.3 nM (active)
[7]
  GI50: < 10 nM (active)
[8]
  GI50: 23.4 nM (active)
[9]
  GI50: < 15.2 nM (active)
[10]
  GI50: < 16.4 nM (active)
[11]
  GI50: < 13.5 nM (active)
[12]
  GI50: < 14.3 nM (active)
[13]
  GI50: < 13.1 nM
[14]
  GI50: 53.3 nM (active)
[15]
  GI50: 24.4 nM (active)
[16]
  GI50: 16.8 nM (active)
[17]
  GI50: < 14.8 nM (active)
[18]
  GI50: < 10 nM (active)
[19]
  GI50: 29.8 nM (active)
[20]
  GI50: 13.6 nM (active)
[21]
  GI50: 16.6 nM (active)
[22]
  GI50: < 10 nM (active)
[23]
  GI50: 18.3 nM (active)
[24]
  GI50: < 14.2 nM (active)
[25]
  GI50: 11.6 nM (active)
[26]
  GI50: < 10 nM (active)
[27]
  GI50: < 15.4 nM (active)
[28]
  GI50: < 15.6 nM (active)
[29]
  GI50: < 14.3 nM (active)
[30]
  GI50: < 12.7 nM (active)
[31]
  GI50: 14.2 nM (active)
[32]
  GI50: < 20.6 nM (active)
[33]
  GI50: < 14.9 nM (active)
[34]
  GI50: 16.3 nM (active)
[35]
  GI50: < 12.4 nM (active)
[36]
  GI50: < 18.1 nM (active)
[37]
  GI50: < 13.4 nM (active)
[38]
  GI50: < 14.3 nM (active)
[39]
  GI50: 14.5 nM (active)
[40]
  GI50: < 12.6 nM (active)
[41]
  GI50: < 12.4 nM (active)
[42]
  GI50: 13.2 nM (active)
[43]
  GI50: 15.1 nM (active)
[44]
  GI50: 12.5 nM (active)
[45]
  GI50: 16 nM (active)
[46]
  GI50: < 16.1 nM (active)
[47]
  GI50: < 13.4 nM (active)
[48]
  GI50: < 10 nM (active)
[49]
  GI50: < 14.5 nM (active)
[50]
  GI50: < 12.8 nM (active)
[51]
  GI50: < 14.1 nM (active)
[52]
  GI50: 14.2 nM (active)
[53]
  GI50: < 13.3 nM (active)
[54]
  GI50: < 10 nM (active)
[55]
  GI50: < 16.6 nM (active)
[56]
  GI50: < 13.9 nM (active)
[57]
  GI50: < 13.2 nM (active)
[58]
  GI50: < 10 nM (active)

Source: ChEMBL document CHEMBL1201862, “PubChem BioAssay data set” (2004)
